These results are taken from patent US20260157950A1, “Compounds and Cosmetic, Dermocosmetic, Cosmeceutical or Pharmaceutical Compositions for Relaxing Muscles, Including the Skeletal Muscles of the Face, for Anti-Aging Cosmetic Action, for Reducing and/or Smoothing Expression Lines and Wrinkles and/or for Antiperspirant Action, Uses and Methods” (Chemyunion Ltda, priority 2022, published 2026).

Ends that are not written are not given here. * marks the point of attachment. Palmitoyl = CCCCCCCCCCCCCCCC(=O)*

This assay relates to nasolabial and glabellar wrinkles. In words: Assessment of clinical efficacy: topical facial treatment for 28 days, wrinkle evaluation with Bio3D Structured-light Scanner. The format is in vivo, human. The conditions noted are these: Day 28 vs Day 0, topical formulation containing peptide at 500 ppm, 10 volunteers per group. The protocol: Two groups of 10 volunteers underwent 28 days of topical treatment with the peptides SEQ NO ID 1 (Pro-Trp-Lys-Trp) or SEQ NO ID 2 (Pal-Pro-Thr-Lys-Trp) in the facial region. Nasolabial and glabellar lines were evaluated on Day 0 (before) and Day 28 (after 4 weeks of treatment) using Bio3D Structured-light Scanner. For wrinkle evaluation, images of the different areas were taken and processed through specific software. Three parameters (total area, length and depth of wrinkles) were obtained for each of the areas in each of the volunteers.

For the substance Pro-Trp-Lys-Trp (PWKW) [SEQ NO ID 1], the “Decreased wrinkle intensity (D 28/D 0): Wrinkle area” value is listed as −10.92%, the “Decreased wrinkle intensity (D 28/D 0): Wrinkle depth” value was −9.23% and the “Decreased wrinkle intensity (D 28/D 0): Wrinkle length” value was −14.97%.
Consider “Pal-Pro-Thr-Lys-Trp (Palmitoyl-PTKW) [SEQ NO ID 2, N-palmitoylated peptide]”, for which the “Decreased wrinkle intensity (D 28/D 0): Wrinkle area” value was −7.81%, the “Decreased wrinkle intensity (D 28/D 0): Wrinkle depth” value is given as −6.59% and the “Decreased wrinkle intensity (D 28/D 0): Wrinkle length” value is on record as −11.76%.
